DC50 and Dmax data for five compounds are collected here from patent publication US12539292B2, “BRM targeting compounds and associated methods of use” (Arvinas Operations, Inc., priority 2018, dated 2026).

In the experiment the target is T1, BRM (Homo sapiens, UniProt P51531).
T1 construct: In-Cell Western Screen of BRM Degradation in SW1573 Cells; endogenous in cells; host or cells: SW1573
The experiment can be described thus: In-cell Western screen of BRM degradation in SW1573 cells (Dmax and DC50). The experiment is classed as cell-based. The following applies: BRM degradation, SW1573 cells; for DC50: read-out: DC50. An outline of the steps: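 BRM levels were read by LI-COR in-cell Western after two-channel (800/680 nm) immunostaining of fixed, Triton-permeabilised SW1573 cells.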

Where [1] appears, read: tested at the top concentration of between 0.3 and 10 μM, read-out: Dmax (%) (% degraded).

Structures are written as SMILES. Where two headings read alike, the source gives them in different places.

T1 sequence (P51531 whole entry): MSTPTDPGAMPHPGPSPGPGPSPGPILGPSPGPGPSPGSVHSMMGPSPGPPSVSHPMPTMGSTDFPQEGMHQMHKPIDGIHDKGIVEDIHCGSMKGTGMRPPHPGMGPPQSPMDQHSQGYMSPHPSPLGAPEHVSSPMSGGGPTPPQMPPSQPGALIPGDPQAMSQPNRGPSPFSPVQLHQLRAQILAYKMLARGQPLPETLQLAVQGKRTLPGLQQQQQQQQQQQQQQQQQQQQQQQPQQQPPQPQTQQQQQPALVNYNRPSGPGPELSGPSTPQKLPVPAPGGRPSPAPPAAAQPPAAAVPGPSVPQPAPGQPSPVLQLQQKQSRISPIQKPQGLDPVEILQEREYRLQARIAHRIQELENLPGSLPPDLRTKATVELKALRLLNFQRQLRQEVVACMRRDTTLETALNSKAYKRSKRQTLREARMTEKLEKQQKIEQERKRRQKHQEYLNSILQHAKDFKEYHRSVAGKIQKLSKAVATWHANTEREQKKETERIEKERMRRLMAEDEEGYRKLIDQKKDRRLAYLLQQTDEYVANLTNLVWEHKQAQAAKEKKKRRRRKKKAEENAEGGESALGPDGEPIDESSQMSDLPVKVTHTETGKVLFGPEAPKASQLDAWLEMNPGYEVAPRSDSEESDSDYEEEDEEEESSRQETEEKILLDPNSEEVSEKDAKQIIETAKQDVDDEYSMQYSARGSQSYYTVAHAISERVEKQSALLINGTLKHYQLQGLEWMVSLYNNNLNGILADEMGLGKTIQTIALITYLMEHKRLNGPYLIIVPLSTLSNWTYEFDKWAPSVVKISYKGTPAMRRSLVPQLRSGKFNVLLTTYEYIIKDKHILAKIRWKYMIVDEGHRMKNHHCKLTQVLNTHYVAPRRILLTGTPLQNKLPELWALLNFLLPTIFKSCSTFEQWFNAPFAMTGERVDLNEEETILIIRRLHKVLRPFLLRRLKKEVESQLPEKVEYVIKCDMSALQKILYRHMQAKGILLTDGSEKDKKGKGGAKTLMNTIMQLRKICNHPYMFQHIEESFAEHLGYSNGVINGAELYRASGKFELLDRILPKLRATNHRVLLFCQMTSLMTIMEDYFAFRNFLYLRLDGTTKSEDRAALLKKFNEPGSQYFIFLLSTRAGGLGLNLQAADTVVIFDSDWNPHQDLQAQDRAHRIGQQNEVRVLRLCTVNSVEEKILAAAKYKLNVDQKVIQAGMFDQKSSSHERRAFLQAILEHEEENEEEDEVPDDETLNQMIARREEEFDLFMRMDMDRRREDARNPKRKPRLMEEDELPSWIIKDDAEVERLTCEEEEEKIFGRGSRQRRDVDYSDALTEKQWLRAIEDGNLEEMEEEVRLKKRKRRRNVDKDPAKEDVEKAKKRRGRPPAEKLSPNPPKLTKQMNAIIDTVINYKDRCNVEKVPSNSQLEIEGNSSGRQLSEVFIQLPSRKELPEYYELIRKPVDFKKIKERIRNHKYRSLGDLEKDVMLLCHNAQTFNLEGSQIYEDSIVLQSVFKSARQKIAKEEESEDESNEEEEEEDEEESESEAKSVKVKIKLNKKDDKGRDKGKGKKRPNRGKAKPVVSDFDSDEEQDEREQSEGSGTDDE

Consider `Cc1nccn1-c1ccc([C@H](C)NC(=O)[C@@H]2C[C@@H](O)CN2C(=O)[C@H](c2cc(OCCN3CCC(O[C@H]4C[C@H](Oc5cc(N6C7CCC6CN(c6cc(-c8ccccc8O)nnc6N)C7)ccn5)C4)CC3)no2)C(C)C)cc1` [compound 176, (2S,4R)-1-((2S)-2-(3-(2-(4-((1r,3S)-3-((4-(3-(3-amino-6-(2-hydroxyphenyl)pyridazin-4-yl)-3,8-diazabicyclo[3.2.1]octan-8-yl)pyridin-2-yl)oxy)cyclobutoxy)piperidin-1-yl)ethoxy)isoxazol-5-yl)-3-methylbutanoyl)-4-hydroxy-N-((S)-1-(4-(2-methyl-1H-imidazol-1-yl)phenyl)ethyl)pyrrolidine-2-carboxamide], for which the 50% degradation concentration (DC50) was above 30 nM. Also, under setting [1], the Dmax is below 50%. As for `Cc1ncsc1-c1ccc([C@H](C)NC(=O)[C@@H]2C[C@@H](O)CN2C(=O)[C@H](c2cc(OCCCN3CCC(O[C@H]4C[C@H](Oc5cc(N6C7CCC6CN(c6cc(-c8ccccc8O)nnc6N)C7)ccn5)C4)CC3)no2)C(C)C)cc1` [compound 217, (2S,4R)-1-((2S)-2-(3-(3-(4-((1r,3S)-3-((4-(3-(3-amino-6-(2-hydroxyphenyl)pyridazin-4-yl)-3,8-diazabicyclo[3.2.1]octan-8-yl)pyridin-2-yl)oxy)cyclobutoxy)piperidin-1-yl)propoxy)isoxazol-5-yl)-3-methylbutanoyl)-4-hydroxy-N-((S)-1-(4-(4-methylthiazol-5-yl)phenyl)ethyl)pyrrolidine-2-carboxamide], the 50% degradation concentration (DC50) was in the range of 2.5 to 10 nM. The Dmax under setting [1] is above 75%. For `Cc1ncsc1-c1ccc([C@H](C)NC(=O)[C@@H]2C[C@@H](O)CN2C(=O)[C@@H](c2cc(N3CCC(CN4CCC(O[C@H]5C[C@H](C#CC(C)N6CCOC7(CCN(c8cc(-c9ccccc9O)nnc8N)CC7)C6)C5)CC4)CC3)no2)C(C)C)cc1` (stereo partly drawn) [compound 707, (2S,4R)-1-((2R)-2-(3-(4-((4-((1r,3r)-3-(3-(9-(3-amino-6-(2-hydroxyphenyl)pyridazin-4-yl)-1-oxa-4,9-diazaspiro[5.5]undecan-4-yl)but-1-yn-1-yl)cyclobutoxy)piperidin-1-yl)methyl)piperidin-1-yl)isoxazol-5-yl)-3-methylbutanoyl)-4-hydroxy-N-((S)-1-(4-(4-methylthiazol-5-yl)phenyl)ethyl)pyrrolidine-2-carboxamide], the DC50 was below 2.5 nM. Moreover, where the note is “read-out: Dmax (% degraded)”, the greatest degradation seen (Dmax) is above 75%. With `Cc1ncsc1-c1ccc([C@H](CN(C)C)NC(=O)[C@@H]2C[C@@H](O)CN2C(=O)[C@H](c2cc(OCCN3CCN(CCOc4cc(N5C6CCC5CN(c5cc(-c7ccccc7O)nnc5N)C6)ccn4)CC3)no2)C(C)C)cc1` [compound 280, (2S,4R)-1-((2S)-2-(3-(2-(4-(2-((4-(3-(3-amino-6-(2-hydroxyphenyl)pyridazin-4-yl)-3,8-diazabicyclo[3.2.1]octan-8-yl)pyridin-2-yl)oxy)ethyl)piperazin-1-yl)ethoxy)isoxazol-5-yl)-3-methylbutanoyl)-N-((R)-2-(dimethylamino)-1-(4-(4-methylthiazol-5-yl)phenyl)ethyl)-4-hydroxypyrrolidine-2-carboxamide], the DC50 is above 30 nM.

On to `Cc1ncsc1-c1ccc(CNC(=O)[C@@H]2C[C@@H](O)CN2C(=O)[C@H](c2cc(OCCOCCOCCOCCn3cc(-c4cc(-c5ccccc5O)nnc4N)cn3)no2)C(C)C)cc1` [compound 16, (2S,4R)-1-((S)-2-(3-(2-(2-(2-(2-(4-(3-amino-6-(2-hydroxyphenyl)pyridazin-4-yl)-1H-pyrazol-1-yl)ethoxy)ethoxy)ethoxy)ethoxy)isoxazol-5-yl)-3-methylbutanoyl)-4-hydroxy-N-(4-(4-methylthiazol-5-yl)benzyl)pyrrolidine-2-carboxamide], for which the 50% degradation concentration (DC50) was above 30 nM. Moreover, the maximal degradation (Dmax) (when tested at the top concentration of between 0.3 and 10 μM, read-out: Dmax (%) (% degraded)) lay in the range of 50 to 75%.

In general, DC50 refers to the concentration at which degradation of the target reaches its halfway point. One may read the Dmax as the greatest extent of degradation seen.
